Here are results for six molecules from patent US9220264B2, “Multimeric forms of antimicrobial peptides” (Singapore Health Services Pte Ltd., priority 2008, dated 2015).

Each structure is given as a SMILES string. Converted amounts (≈) assume the structure as drawn. Bridge positions count the residues as written; N and C are the ends. Peptide text beside a SMILES is read from it. I, II: the chains in the order shown.

Test [1] has as its system Candida albicans ATCC10231. Type of test: cell-based. The procedure:
(§1) MICs was determined by broth macrodilution method modified from that described by the National Committee for Clinical Laboratory Standards (NCCL). The Mueller Hinton Broth (MHB) at ⅙ strength and without addition of Ca^2+ and Mg^2+ was used for dilution. Serial twofold dilutions of V2 dimer solution was prepared in MHB (⅙ strength) in test tubes. 1 ml of inoculum of test organisms in MHB (⅙ strength) was added to 1 ml of each dilution of V2 dimer to yield as final concentration of 10^4 to 10^5 colony forming units/ml in each test tube. The tubes were incubated at 35° C. for 16 to 20 hours. A positive control containing only the broth and organism, and a negative control tube containing only the broth were also incubated in parallel to the test samples. The above was repeated for each different test organism in separate experiments. The MIC of V2 dimer peptide for each clinical isolate or reference organism was read as the lowest concentration of peptide that inhibited visible growth of the test organism.
(§2) The MIC was also determined for other peptides and compared to gentamicin.

Test [2] relates to Clinical Escherichia coli DB16027 Source: Blood. Type of test: cell-based. The note with it: Clinical DB16027 Source: Blood. As for the experimental part:
as §1, §2

Test [3] concerns Clinical Escherichia coli DU46381R Source: Urine. It counts as cell-based. The procedure:
as §1, §2

Test [4] concerns Clinical Pseudomonas aeruginosa 07DM 023257 Source: Eye. Type of test: cell-based. The conditions noted are these: Clinical 07DM 023257 Source: Eye. As for the experimental part: as §1, §2
Test [5] has as its system Clinical Pseudomonas aeruginosa 07DM023376 Source: Eye. It counts as cell-based. The conditions noted are these: Clinical 07DM023376 Source: Eye. As for the experimental part: as §1, §2
Test [6] relates to Clinical Pseudomonas aeruginosa DM 023104 Source: Eye. Type of test: cell-based. The conditions noted are these: Clinical DM 023104 Source: Eye. The procedure: as §1, §2
In test [7] the test system is Clinical Pseudomonas aeruginosa DM 023155 Source: Eye. Type of test: cell-based. The note with it: Clinical DM 023155 Source: Eye. The procedure: as §1, §2
For test [8], the system named is Clinical Pseudomonas aeruginosa PAE 230 DR4877/07 Source: Sputum. Type of test: cell-based. The conditions noted are these: Clinical PAE 230 DR4877/07 Source: Sputum. The procedure: as §1, §2
The subject of test [9] is Clinical Pseudomonas aeruginosa PAE 239 DM5790/07 Source: Wound. Type of test: cell-based. The note with it: Clinical PAE 239 DM5790/07 Source: Wound. As for the experimental part: as §1, §2
Test [10] deals with Clinical Pseudomonas aeruginosa PAE 240 DU14476/07 Source: Urine. It counts as cell-based. The note with it: Clinical PAE 240 DU14476/07 Source: Urine. The procedure:
as §1, §2

Test [11] deals with Clinical Pseudomonas aeruginosa PAE 249 DM15013 Source: Wound. Type of test: cell-based. The note with it: Clinical PAE 249 DM15013 Source: Wound. The procedure: as §1, §2
In test [12] the test system is Clinical Staphylococcus aureus DM4001 Source: Eye. Type of test: cell-based. The procedure: as §1, §2
In test [13] the test system is Escherichia coli ATCC25922. Type of test: cell-based. As for the experimental part:
as §1, §2

The subject of test [14] is Fusarium solani ATCC 36031. Type of test: cell-based. As for the experimental part:
as §1, §2

Test [15] concerns Clinical Cadida albicans DF2672R Source: Urine. Type of test: cell-based, Candida albicans. As for the experimental part:
as §1, §2

As for `N=C(N)NCCC[C@H](NC(=O)[C@H](CCCNC(=N)N)NC(=O)[C@H](Cc1ccc(O)cc1)NC(=O)[C@H](Cc1ccc(O)cc1)NC(=O)[C@H](CCCCN)NC(=O)[C@H](CCCNC(=N)N)NC(=O)CNC(=O)[C@@H](N)CCCNC(=N)N)C(=O)O` [Y2-8AA, RGRKYYRR] (H-RGRKYYRR-OH; N-terminus and C-terminus assumed), the minimal inhibitory concentration (MIC) in test [1] was 25 µg/mL (≈ 21.7 µM); in test [2], 25 µg/mL (≈ 21.7 µM); in [3] it was 25 µg/mL (≈ 21.7 µM); in [4], greater than 50 µg/mL; in test [5] it was 50 µg/mL (≈ 43.3 µM); in test [6], greater than 50 µg/mL. The MIC was greater than 50 µg/mL in test [7]; greater than 50 µg/mL in test [8]; greater than 50 µg/mL in [9]; 6.25 µg/mL (≈ 5.41 µM) in [10]; greater than 50 µg/mL in [11]; greater than 50 µg/mL in test [12]. Besides, the minimal inhibitory concentration (MIC) in test [13] is 25 µg/mL (≈ 21.7 µM); in [14], 50 µg/mL (≈ 43.3 µM); in test [15], 50 µg/mL (≈ 43.3 µM).

Take `CC(C)[C@H](NC(=O)[C@H](CCCCN)NC(=O)[C@H](CCCNC(=N)N)NC(=O)CNC(=O)[C@@H](N)CCCNC(=N)N)C(=O)N[C@H](C(=O)N[C@@H](CCCNC(=N)N)C(=O)N[C@@H](CCCNC(=N)N)C(=O)O)C(C)C` [V2-8AA, RGRKVVRR] (H-RGRKVVRR-OH; N-terminus and C-terminus assumed): the MIC is greater than 50 µg/mL in [1]; greater than 50 µg/mL in test [2]; 50 µg/mL (≈ 48.7 µM) in [3]; greater than 50 µg/mL in test [4]; greater than 50 µg/mL in [5]; greater than 50 µg/mL in [6]. Moreover, the minimal inhibitory concentration (MIC) in test [7] is greater than 50 µg/mL; in test [8], greater than 50 µg/mL; in test [9], greater than 50 µg/mL; in test [10], 25 µg/mL (≈ 24.4 µM); in test [11], greater than 50 µg/mL; in test [12], greater than 50 µg/mL. In addition, the values for the MIC in test [13], in test [14] and in [15] were greater than 50 µg/mL, greater than 100 µg/mL and greater than 50 µg/mL, respectively.

Turning to `N=C(N)NCCC[C@H](NC(=O)[C@H](CCCNC(=N)N)NC(=O)[C@H](Cc1c[nH]c2ccccc12)NC(=O)[C@H](Cc1c[nH]c2ccccc12)NC(=O)[C@H](CCCCN)NC(=O)[C@H](CCCNC(=N)N)NC(=O)CNC(=O)[C@@H](N)CCCNC(=N)N)C(=O)O` [W2-8AA, RGRKWWRR] (H-RGRKWWRR-OH; N-terminus and C-terminus assumed), the MIC in [1] is 12.5 µg/mL (≈ 10.4 µM); in test [2], 6.25 µg/mL (≈ 5.21 µM); in test [3], 6.25 µg/mL (≈ 5.21 µM); in test [4], greater than 50 µg/mL; in test [5], 25 µg/mL (≈ 20.8 µM); in [6], 25 µg/mL (≈ 20.8 µM). In addition, the MIC in test [7] is 50 µg/mL (≈ 41.7 µM); in test [8], greater than 50 µg/mL; in test [9], greater than 50 µg/mL; in test [10], 12.5 µg/mL (≈ 10.4 µM); in [11], 50 µg/mL (≈ 41.7 µM); in [12] it was 12.5 µg/mL (≈ 10.4 µM). In addition, the minimum inhibitory concentration (MIC) came to 12.5 µg/mL (≈ 10.4 µM) in test [13], 25 µg/mL (≈ 20.8 µM) in test [14] and 12.5 µg/mL (≈ 10.4 µM) in [15].

Take `CC(C)[C@H](NC(=O)[C@H](CCCCN)NC(=O)[C@H](CCCNC(=N)N)NC(=O)CNC(=O)[C@@H](N)CCCNC(=N)N)C(=O)N[C@H](C(=O)N[C@@H](CCCNC(=N)N)C(=O)N[C@@H](CCCNC(=N)N)C(=O)NCCCC[C@H](NC(=O)[C@H](CCCNC(=N)N)NC(=O)[C@H](CCCNC(=N)N)NC(=O)[C@@H](NC(=O)[C@@H](NC(=O)[C@H](CCCCN)NC(=O)[C@H](CCCNC(=N)N)NC(=O)CNC(=O)[C@@H](N)CCCNC(=N)N)C(C)C)C(C)C)C(=O)NCCCC[C@H](NC(=O)[C@H](CCCCNC(=O)[C@H](CCCNC(=N)N)NC(=O)[C@H](CCCNC(=N)N)NC(=O)[C@@H](NC(=O)[C@@H](NC(=O)[C@H](CCCCN)NC(=O)[C@H](CCCNC(=N)N)NC(=O)CNC(=O)[C@@H](N)CCCNC(=N)N)C(C)C)C(C)C)NC(=O)[C@H](CCCNC(=N)N)NC(=O)[C@H](CCCNC(=N)N)NC(=O)[C@@H](NC(=O)[C@@H](NC(=O)[C@H](CCCCN)NC(=O)[C@H](CCCNC(=N)N)NC(=O)CNC(=O)[C@@H](N)CCCNC(=N)N)C(C)C)C(C)C)C(=O)N[C@@H](CCCCN)C(=O)O)C(C)C` [V2-tetramer] (I: H-RGRKVVRRKKK-OH / II: H-RGRKVVRRK / III: H-RGRKVVRR / IV: H-RGRKVVRR; amide I:9-IV:C, I:10-II:C, II:9-III:C; N-terminus assumed): the MIC is 12.5 µg/mL (≈ 2.74 µM) in [1]; 6.25 µg/mL (≈ 1.37 µM) in test [2]; 6.25 µg/mL (≈ 1.37 µM) in [3]; 12.5 µg/mL (≈ 2.74 µM) in test [4]; 6.25 µg/mL (≈ 1.37 µM) in [5]; 6.25 µg/mL (≈ 1.37 µM) in test [6]. In addition, the MIC in [7] was found to be 6.25 µg/mL (≈ 1.37 µM); in test [8], 12.5 µg/mL (≈ 2.74 µM); in test [9] it was 12.5 µg/mL (≈ 2.74 µM); in test [10] it was 6.25 µg/mL (≈ 1.37 µM); in test [11] it was 6.25 µg/mL (≈ 1.37 µM); in test [12], 12.5 µg/mL (≈ 2.74 µM). In addition, the MIC in [13] amounted to 12.5 µg/mL (≈ 2.74 µM); in test [14] it was 3.125 µg/mL (≈ 0.685 µM); in test [15] it was 12.5 µg/mL (≈ 2.74 µM).

Turning to `N=C(N)NCCC[C@H](NC(=O)CNC(=O)[C@@H](N)CCCNC(=N)N)C(=O)N[C@@H](CCCCN)C(=O)N[C@@H](Cc1ccc(O)cc1)C(=O)N[C@@H](Cc1ccc(O)cc1)C(=O)N[C@@H](CCCNC(=N)N)C(=O)N[C@@H](CCCNC(=N)N)C(=O)N[C@@H](Cc1ccc(O)cc1)C(=O)N[C@@H](Cc1ccc(O)cc1)C(=O)O` [Y4 monomer, RGRKYYRRYY] (H-RGRKYYRRYY-OH; N-terminus and C-terminus assumed), the MIC in [1] is 12.5 µg/mL (≈ 8.44 µM); in test [2], 6.25 µg/mL (≈ 4.22 µM); in test [3] it was 12.5 µg/mL (≈ 8.44 µM); in test [4] it was greater than 50 µg/mL; in test [5], greater than 50 µg/mL; in test [6], 50 µg/mL (≈ 33.8 µM). The MIC in test [7] is 25 µg/mL (≈ 16.9 µM); in test [8], greater than 50 µg/mL; in test [9] it was 50 µg/mL (≈ 33.8 µM); in test [10] it was 25 µg/mL (≈ 16.9 µM); in [11], 50 µg/mL (≈ 33.8 µM); in [12], 12.5 µg/mL (≈ 8.44 µM). Besides, the values for the MIC in test [13], in test [14] and in test [15] were 12.5 µg/mL (≈ 8.44 µM), 12.5 µg/mL (≈ 8.44 µM) and 25 µg/mL (≈ 16.9 µM), respectively.

Take `N=C(N)NCCC[C@H](NC(=O)CNC(=O)[C@@H](N)CCCNC(=N)N)C(=O)N[C@@H](CCCCN)C(=O)N[C@@H](Cc1ccc(O)cc1)C(=O)N[C@@H](Cc1ccc(O)cc1)C(=O)N[C@@H](CCCNC(=N)N)C(=O)N[C@@H](CCCNC(=N)N)C(=O)NCCCC[C@H](NC(=O)[C@H](CCCNC(=N)N)NC(=O)[C@H](CCCNC(=N)N)NC(=O)[C@H](Cc1ccc(O)cc1)NC(=O)[C@H](Cc1ccc(O)cc1)NC(=O)[C@H](CCCCN)NC(=O)[C@H](CCCNC(=N)N)NC(=O)CNC(=O)[C@@H](N)CCCNC(=N)N)C(=O)N[C@@H](CCCCN)C(=O)O` [Y2-dimer] (I: H-RGRKYYRRKK-OH / II: H-RGRKYYRR; amide I:9-II:C; N-terminus assumed): the minimum inhibitory concentration (MIC) was 25 µg/mL (≈ 9.82 µM) in test [1]; 6.25 µg/mL (≈ 2.45 µM) in test [2]; 12.5 µg/mL (≈ 4.91 µM) in test [3]; 12.5 µg/mL (≈ 4.91 µM) in test [4]; 25 µg/mL (≈ 9.82 µM) in test [5]; 12.5 µg/mL (≈ 4.91 µM) in test [6]. In addition, the minimum inhibitory concentration (MIC) in test [7] was 25 µg/mL (≈ 9.82 µM); in test [8] it was 12.5 µg/mL (≈ 4.91 µM); in test [9], 12.5 µg/mL (≈ 4.91 µM); in test [10], 6.25 µg/mL (≈ 2.45 µM); in test [11] it was 12.5 µg/mL (≈ 4.91 µM); in test [12] it was 12.5 µg/mL (≈ 4.91 µM). Besides, the MIC in test [13], in [14] and in [15] was 12.5 µg/mL (≈ 4.91 µM) each time.

In general, MIC refers to the least concentration at which growth counts as inhibited. Low values mean a more susceptible organism, high ones a less susceptible organism.
